Source: the NIST ThermoML archive (doi:10.1021/je400055v)
± gives the expanded uncertainty stated by the source.

Details: Liquid, Vibrating tube method

**Q.** With Cc1ccccc1O [2-methylphenol] as the compound, how does the mass density (313.2 K, 1022 kPa) read?
**A.** The mass density was 1027.5 ± 0.2 kg/m3.

**Q.** And the mass density (313.2 K, 2031 kPa)?
**A.** The mass density was 1028.1 ± 0.2 kg/m3.

**Q.** What about the mass density (313.2 K, 3017 kPa) of the same compound?
**A.** The mass density was 1028.7 ± 0.2 kg/m3.

**Q.** What about the mass density (313.2 K, 4012 kPa) of the same compound?
**A.** Its mass density is 1029.2 ± 0.2 kg/m3.

**Q.** What about the mass density (313.2 K, 5018 kPa) of the same compound?
**A.** The mass density was 1029.8 ± 0.2 kg/m3.

**Q.** What about the mass density (313.2 K, 6010 kPa) of the same compound?
**A.** The mass density was 1030.4 ± 0.2 kg/m3.

**Q.** And the mass density (313.2 K, 7005 kPa)?
**A.** Its mass density is 1030.9 ± 0.2 kg/m3.

**Q.** What about the mass density (313.2 K, 8006 kPa) of the same compound?
**A.** The mass density was 1031.5 ± 0.2 kg/m3.

**Q.** What about the mass density (313.2 K, 9004 kPa) of the same compound?
**A.** The mass density was 1032 ± 0.2 kg/m3.

**Q.** What about the mass density (313.2 K, 10005 kPa) of the same compound?
**A.** Its mass density is 1032.6 ± 0.2 kg/m3.

**Q.** What about the mass density (323.16 K, 1013 kPa) of the same compound?
**A.** Its mass density is 1018.7 ± 0.2 kg/m3.

**Q.** And the mass density (323.16 K, 2039 kPa)?
**A.** Its mass density is 1019.3 ± 0.2 kg/m3.

**Q.** And the mass density (323.16 K, 3007 kPa)?
**A.** The mass density was 1019.9 ± 0.2 kg/m3.

**Q.** And the mass density (323.16 K, 4009 kPa)?
**A.** The mass density was 1020.5 ± 0.2 kg/m3.

**Q.** And the mass density (323.16 K, 5005 kPa)?
**A.** Its mass density is 1021.1 ± 0.2 kg/m3.

**Q.** What about the mass density (323.16 K, 6004 kPa) of the same compound?
**A.** The mass density was 1021.7 ± 0.2 kg/m3.

**Q.** And the mass density (323.16 K, 6999 kPa)?
**A.** Its mass density is 1022.2 ± 0.2 kg/m3.

**Q.** And the mass density (323.16 K, 8008 kPa)?
**A.** Its mass density is 1022.8 ± 0.2 kg/m3.

**Q.** What about the mass density (323.16 K, 9002 kPa) of the same compound?
**A.** The mass density was 1023.4 ± 0.2 kg/m3.

**Q.** What about the mass density (323.16 K, 10005 kPa) of the same compound?
**A.** The mass density was 1024 ± 0.2 kg/m3.

**Q.** What about the mass density (333.1 K, 1010 kPa) of the same compound?
**A.** The mass density was 1009.9 ± 0.2 kg/m3.

**Q.** What about the mass density (333.1 K, 2033 kPa) of the same compound?
**A.** The mass density was 1010.5 ± 0.2 kg/m3.

**Q.** And the mass density (333.1 K, 3009 kPa)?
**A.** Its mass density is 1011.1 ± 0.2 kg/m3.

**Q.** And the mass density (333.1 K, 4014 kPa)?
**A.** Its mass density is 1011.8 ± 0.2 kg/m3.

**Q.** What about the mass density (333.1 K, 5004 kPa) of the same compound?
**A.** Its mass density is 1012.4 ± 0.2 kg/m3.

**Q.** What about the mass density (333.1 K, 5998 kPa) of the same compound?
**A.** Its mass density is 1013 ± 0.2 kg/m3.

**Q.** And the mass density (333.1 K, 7000 kPa)?
**A.** Its mass density is 1013.6 ± 0.2 kg/m3.

**Q.** What about the mass density (333.1 K, 8009 kPa) of the same compound?
**A.** The mass density was 1014.2 ± 0.2 kg/m3.

**Q.** And the mass density (333.1 K, 9004 kPa)?
**A.** Its mass density is 1014.8 ± 0.2 kg/m3.

**Q.** What about the mass density (333.1 K, 10010 kPa) of the same compound?
**A.** The mass density was 1015.4 ± 0.2 kg/m3.

**Q.** And the mass density (343.06 K, 1023 kPa)?
**A.** Its mass density is 1000.8 ± 0.2 kg/m3.

**Q.** What about the mass density (343.06 K, 2024 kPa) of the same compound?
**A.** Its mass density is 1001.6 ± 0.2 kg/m3.

**Q.** What about the mass density (343.06 K, 3015 kPa) of the same compound?
**A.** The mass density was 1002.2 ± 0.2 kg/m3.

**Q.** And the mass density (343.06 K, 4003 kPa)?
**A.** Its mass density is 1002.9 ± 0.2 kg/m3.

**Q.** And the mass density (343.06 K, 5009 kPa)?
**A.** Its mass density is 1003.6 ± 0.2 kg/m3.

**Q.** What about the mass density (343.06 K, 6005 kPa) of the same compound?
**A.** The mass density was 1004.2 ± 0.2 kg/m3.

**Q.** What about the mass density (343.06 K, 7008 kPa) of the same compound?
**A.** Its mass density is 1004.8 ± 0.2 kg/m3.

**Q.** What about the mass density (343.06 K, 8003 kPa) of the same compound?
**A.** Its mass density is 1005.5 ± 0.2 kg/m3.

**Q.** What about the mass density (343.06 K, 8999 kPa) of the same compound?
**A.** The mass density was 1006.1 ± 0.2 kg/m3.

**Q.** And the mass density (343.06 K, 10004 kPa)?
**A.** Its mass density is 1006.7 ± 0.2 kg/m3.

**Q.** What about the mass density (352.99 K, 1043 kPa) of the same compound?
**A.** Its mass density is 991.9 ± 0.2 kg/m3.

**Q.** What about the mass density (352.99 K, 2000 kPa) of the same compound?
**A.** Its mass density is 992.6 ± 0.2 kg/m3.

**Q.** What about the mass density (352.99 K, 3034 kPa) of the same compound?
**A.** The mass density was 993.3 ± 0.2 kg/m3.

**Q.** What about the mass density (352.99 K, 4015 kPa) of the same compound?
**A.** The mass density was 994 ± 0.2 kg/m3.

**Q.** And the mass density (352.99 K, 5033 kPa)?
**A.** The mass density was 994.6 ± 0.2 kg/m3.

**Q.** And the mass density (352.99 K, 6007 kPa)?
**A.** Its mass density is 995.3 ± 0.2 kg/m3.

**Q.** What about the mass density (352.99 K, 7016 kPa) of the same compound?
**A.** Its mass density is 996 ± 0.2 kg/m3.

**Q.** What about the mass density (352.99 K, 8006 kPa) of the same compound?
**A.** The mass density was 996.7 ± 0.2 kg/m3.

**Q.** And the mass density (352.99 K, 9015 kPa)?
**A.** Its mass density is 997.3 ± 0.2 kg/m3.

**Q.** And the mass density (352.99 K, 10014 kPa)?
**A.** Its mass density is 998 ± 0.2 kg/m3.
